{
  "source": "patent US20210260057A1",
  "about": "“COMPOSITIONS AND METHODS TARGETING GLUTAMINE AND ITS METABOLISM FOR DIAGNOSING AND TREATING CANCER AND THERAPY-ASSOCIATED SIDE EFFECTS” (CEDARS-SINAI MEDICAL CENTER, priority 2018, published 2021)",
  "key": {"C4-2B cells": {"system": "C4-2B cells", "experiment": "qPCR of neuroendocrine marker genes, C4-2B", "type": "cell-based, human", "conditions": "L-glutamine 2 mM, P<0.0001", "experimental": "(§1) RNA expression level. All real-time PCR assays were carried out using three technical replicates and three independent cDNA syntheses on a 7500 Real-Time PCR System (Applied Biosystems). Data were normalized using an internal control gene, either GAPDH or β-actin. Relative quantification of expression levels (RQ) was calculated using the ^2-ΔΔCt method."}, "C4-2B": {"system": "C4-2B", "experiment": "Glutamine transporter and glutaminase gene expression, C4-2B", "type": "cell-based, human", "conditions": "glutamine 2 mM", "experimental": "as §1"}, "CWR22Rv1 [1]": {"system": "CWR22Rv1", "experiment": "Glutamine transporter gene expression, CWR22Rv1", "type": "cell-based, human", "conditions": "CWR22Rv1, glutamine 2 mM", "experimental": "as §1"}, "CWR22Rv1 [2]": {"system": "CWR22Rv1", "experiment": "qPCR of neuroendocrine marker genes, CWR22Rv1", "type": "cell-based, human", "conditions": "CWR22Rv1, L-glutamine alone vs vehicle; F-test P<0.0001", "experimental": "as §1"}, "[3]": {"system": "human prostate cancer cells (CWR22Rv1)", "experiment": "Gene expression in prostate cancer cells (FIG. 15A-D)", "type": "cell-based", "conditions": "for Bone morphogenic protein (BMP) expression: CWR22Rv1 (FIG. 15A); for TET2 expression: FIG. 15C, 15D"}, "[4]": {"system": "prostate cancer epithelial cells", "experiment": "ALDH (stem marker) in prostate cancer epithelial cells", "type": "cell-based", "conditions": "prostate cancer epithelial cells (FIG. 17A, 17B)"}, "CWR22Rv1 [5]": {"system": "CWR22Rv1", "experiment": "CWR22Rv1 proliferation by cell counting in conditioned media", "type": "cell-based, human", "conditions": "NAF-CM supplemented with 0.4 mM glutamine, 72 hrs; compared to CAF-CM", "experimental": "(FIG. 3A) Relative mRNA expression levels of CAF-marker genes in WT and Ras^V12 mouse fibroblast determined by quantitative rtPCR and analyzed using 2-way ANOVA (n≤3). (FIG. 3B) EpCAM-positive cancer epithelial was quantitated by FACS of 3D co-cultures of human epithelial (CWR22Rv1) cells and WT or Ras^V12 mouse fibroblasts. Statistical analysis was performed using two-tailed student's t test (n≤3). (FIG. 3C) ATP was measured in CWR22Rv1 after incubation with conditioned media human NAF or CAF or mouse WT or Ras^V12 fibroblast or oligomycin in glutamine free media (n≤3). Statistical analysis was performed using 1-way ANOVA with multiple comparisons. (FIG. 3D) The diagram represents the TCA cycle in CWR22Rv1 cells treated with NAF- or CAF-conditioned media for 72 hours prior to metabolome analysis (n≤3). (FIG. 3E) The metabolome analysis further indicated differential flux to aspartate, oxidized GSH, and GSH-reduced in CWR22Rv1 cells incubated with NAF- or CAF-conditioned media. (FIG. 3F) Glutamine concentrations were measured in the conditioned media from indicated mouse fibroblasts cultured for 72 hours. (FIG. 3D-FIG. 3F) Statistical analysis was performed using two-tailed student's t test (n≤3). (FIG. 3G) CWR22Rv1 proliferation was measured by cell counting following incubation with NAF and CAF conditioned media for 72 hrs in glutamine free media. […]"}, "RASAL3 mRNA in CAF": {"system": "RASAL3 mRNA in CAF", "experiment": "RASAL3 mRNA expression (rtPCR) in CAF", "type": "cell-based, human", "conditions": "5-day treatment; Bic 10^−5 M, Enza 10^−5 M, R1881 10^−9 M, 5-Aza 5 mmol/L", "experimental": "as §1"}, "[6]": {"system": "CWR22Rv1 and CAF tissue recombinants", "experiment": "Castrate resistant sub-renal capsule xenograft (castration + enzalutamide)", "conditions": "castrated mice treated with enzalutamide alone", "description": "Tissue recombination mouse models. Cell recombinants were prepared by mixing 2×10^5 epithelial (CWR22Rv1) cells with 6×10^5 CAFs or stromal cells expressing KRAS^V12 per site in collagen as described before (Banerj ee J, Mishra R, Li X, Jackson R S, 2nd, Sharma A, and Bhowmick N A. A reciprocal role of prostate cancer on stromal DNA damage. Oncogene. 2014; 33(41):4924-31). The mice were either left intact or castrated 1 week after grafting. […] Castrated mice were treated with enzalutamide (5 mg/kg) either alone or in combination with L-glutamic acid Υ-(p-nitroanilide) hydrochloride (GPNA; 10 mg/kg; Sigma-Aldrich) for three weeks. The tumor volumes were measured using digital calipers and calculated using the following formula: length (mm)×width (mm)×width (mm)×0.52. When the mice were sacrificed and tumors were excised and photographed. Formalin-fixed, paraffin-embedded (FFPE) xenograft tumor tissue was sectioned and stained with hematoxylin and eosin (H&E) and staining for chromogranin A, TUNEL, phosphorylated-hi stone H3 and phosphorylated-mTOR."}, "bone marrow fibroblasts": {"system": "bone marrow fibroblasts", "experiment": "Glutamine expression by bone marrow fibroblasts", "type": "cell-based", "conditions": "FIG. 15E, FIG. 17D", "experimental": "(§2) Measurements of glutamine. Glutamine was measured in blood plasma and conditioned media by using glutamine detection kit (Abcam) following manufacturer protocol. Deproteinization step was performed in plasma samples prior to glutamine detection. The absorbance was measured at 450 nm using a Bio-Rad Benchmark plus microplate spectrophotometer (Bio-Rad Laboratories)."}, "[7]": {"system": "prostate cancer (serum PSA)", "experiment": "PSA response of PCa patients on androgen targeted therapy", "type": "in vivo, human", "set-up": "PSA on treatment: unit not given beside the values", "from_the_text": "Plasma glutamine level may be prognostic for ADT sensitivity. Considering the striking finding that glutamine can induce ADT resistance, we tested if glutamine concentrations can be associated with ADT sensitivity in prostate cancer patients. We measured blood plasma glutamine concentrations in 28 PCa patients that received ADT (Table 1). Of note, the specific androgen signaling-axis interventions in the patient pool included, androgen receptor antagonists: bicalutamide, enzalutamide, and apalutamide, as well as androgen synthesis inhibitors: leuprolide, goserelin, triptorelin, and abiraterone."}, "RASAL3 promoter": {"system": "RASAL3 promoter", "experiment": "Methylation specific PCR of RASAL3 exon 2 in CAF", "type": "cell-based, human", "conditions": "CAF after treatment", "experimental": "(FIG. 13A) Quantitative rtPCR analysis of RASAL3 in NAF and CAF was performed following 5 day treatment with bicalutamide (Bic, 10^−5 M), enzalutamide (Enza, 10^−5 M), R1881 (10^−9 M), or 5-Azacytidine (5-Aza, […]). RASAL3 expression was normalized GAPDH expression. Data represent the mean±SEM. *P<0.05, ***P<0.001, and ****P<0.0001, by two-way ANOVA followed by multiple comparison. Results are the average of at least three independent experiments. (FIG. 13B) MS-PCR of the RASAL3 exon 2 methylation status in CAF after treatment with enzalutamide, R1881, 5-Azacytidine and bicalutamide was performed. The PCR products in the lanes marked “U” indicate unmethylated templates for RASAL3 gene, whereas the products in the lanes marked “M” indicate methylated templates. Data are representative of three independent experiments."}, "RASAL3 mRNA in NAF": {"system": "RASAL3 mRNA in NAF", "experiment": "RASAL3 mRNA expression (rtPCR) in NAF", "type": "cell-based, human", "conditions": "5-day treatment; Bic 10^−5 M, Enza 10^−5 M, R1881 10^−9 M", "experimental": "as §1"}, "prostatic fibroblasts": {"system": "prostatic fibroblasts", "experiment": "Glutamine in conditioned media of prostatic fibroblasts", "type": "cell-based", "conditions": "FIG. 17C", "experimental": "as §2"}, "RASAL3 exon 2": {"system": "RASAL3 exon 2", "experiment": "Bisulfite sequencing of RASAL3 exon 2 in CAF", "type": "cell-based, human", "conditions": "CAF treated with R1881 for 5 days", "experimental": "Bisulfite Sequencing. Bisulfite sequencing was performed as described previously (Haldar S, Dru C, Mishra R, Tripathi M, Duong F, Angara B, Fernandez A, Arditi M, and Bhowmick N A. Histone deacetylase inhibitors mediate DNA damage repair in ameliorating hemorrhagic cystitis. Sci Rep. 2016; 6(39257). Briefly, genomic DNA was extracted from the NAF and CAF samples and 200 ng of DNA was bisulfite converted by using the EZ DNA Methylation-Gold Kit (Zymo Research, Irvine, Calif.) according to the manufacturer's protocol. Three overlapping primers were used for amplification of Exon 2 region of RASAL3 by ZymoTaq DNA polymerase (Zymo Research) and subsequently cloned into the pCR2.1-TOPO vector (Invitrogen by Life Technologies, Carlsbad, Calif.). The primer sequences used to amplify the three regions were designed by using the Meth-Primer program (www.urogene.org/methprimer/) and are listed in Table 4. Five clones from each sample were sequenced by using Sanger's method."}},
  "note": "Several values for one entry are separate records, joined by “and”; a condition that tells them apart may be missing. Equal values may be shown once.",
  "data": [
    {"compound": "NC(=O)CC[C@H](N)C(=O)O", "note": "[glutamine, L-glutamine]", "values": [
      {"measurement": "neuroendocrine differentiation (marker gene expression)", "setting": "C4-2B cells", "result": "induce neuroendocrine differentiation"},
      {"measurement": "SLC38A1 transporter expression", "setting": "C4-2B", "result": "did not seem to be regulated"},
      {"measurement": "expression of glutamine importers SLC1A5 and SCL38A2", "setting": "C4-2B; time dependent", "result": "consistently increased"},
      {"measurement": "GLS and GLS2 mRNA expression", "setting": "C4-2B; within 6 hours of treatment", "result": "promote"},
      {"measurement": "SLC38A1 transporter expression", "setting": "CWR22Rv1 [1]", "result": "did not seem to be regulated"},
      {"measurement": "expression of glutamine importers SLC1A5 and SCL38A2", "setting": "CWR22Rv1 [1]; time dependent", "result": "consistently increased"},
      {"measurement": "expression of neuroendocrine gene panel", "setting": "CWR22Rv1 [2]", "result": "upregulated"},
      {"measurement": "Bone morphogenic protein (BMP) expression", "setting": "[3]", "result": "upregulated"},
      {"measurement": "TET2 expression", "setting": "[3]", "result": "upregulates"},
      {"measurement": "osteopotegrin (OPG) and FoxMl expression", "setting": "[3]; increasing doses of Gln (FIG. 15B)", "result": "upregulates"},
      {"measurement": "ALDH (stem marker)", "setting": "[4]", "result": "upregulates"},
      {"measurement": "CWR22Rv1 proliferation", "setting": "CWR22Rv1 [5]", "result": "restored CWR22Rv1 proliferation"}
    ]},
    {"compound": "CNC(=O)c1ccc(N2C(=S)N(c3ccc(C#N)c(C(F)(F)F)c3)C(=O)C2(C)C)cc1F", "note": "[enzalutamide]", "values": [
      {"measurement": "RASAL3 mRNA expression in CAF", "setting": "RASAL3 mRNA in CAF", "result": "little effect"},
      {"measurement": "tumor growth under ADT", "setting": "[6]", "result": "expanded despite ADT"},
      {"measurement": "glutamine expression in bone marrow fibroblasts", "setting": "bone marrow fibroblasts", "result": "promotes"},
      {"measurement": "PSA on treatment", "setting": "[7]; individual PCa patient on the listed Rx", "result": "0.1 and 344.3 and <0.1 and 116.7"},
      {"measurement": "Outcome", "setting": "[7]; individual PCa patient, responsiveness to ADT based on serum PSA", "result": "Responsive (2×) and Non- (2×)"},
      {"measurement": "methylation of the RASAL3 promoter (methylation specific PCR)", "setting": "RASAL3 promoter", "result": "hypermethylation"},
      {"measurement": "Bone morphogenic protein (BMP) expression", "setting": "[3]", "result": "upregulated"},
      {"measurement": "TET2 expression", "setting": "[3]", "result": "induces"},
      {"measurement": "RASAL3 mRNA expression in NAF", "setting": "RASAL3 mRNA in NAF", "result": "downregulated"},
      {"measurement": "ALDH (stem marker)", "setting": "[4]", "result": "upregulates"},
      {"measurement": "glutamine expression in the conditioned media of prostatic fibroblasts", "setting": "prostatic fibroblasts", "result": "promotes"}
    ]},
    {"compound": "C[C@]1(O)CC[C@H]2[C@@H]3CCC4=CC(=O)CCC4=C3C=C[C@@]21C", "note": "[R1881]", "values": [
      {"measurement": "RASAL3 mRNA expression in CAF", "setting": "RASAL3 mRNA in CAF", "result": "significantly elevated"},
      {"measurement": "prevention of CpG methylation of RASAL3 exon 2, over vehicle treated CAF", "setting": "RASAL3 exon 2", "result": 2.6, "unit": "fold"},
      {"measurement": "methylation of the RASAL3 promoter (methylation specific PCR)", "setting": "RASAL3 promoter", "result": "hypomethylation"},
      {"measurement": "RASAL3 mRNA expression in NAF", "setting": "RASAL3 mRNA in NAF", "result": "no effect"}
    ]}
  ]
}
